Peptide text beside a SMILES is read from it.

As for `COc1ccc(C=C(C(C)=O)C(C)=O)c(OC)c1`, the logP came out at 1.88.

Compound `NCc1cccnc1` showed a logP of -0.32.

On to `CC(=O)N[C@@H](C)C(=O)N[C@@H](CC(C)C)C(=O)N[C@H](C(N)=O)C(C)C` (Ac-Ala-Leu-Val-NH2), for which the logP was -0.14.

In turn, `CC(C)c1cccc(OCC(=O)O)c1` returned a logP of 2.59.

With `Oc1cccc2c(Cl)ccnc12`, the logP came to 2.67.

On to `Cc1cnc(NS(=O)(=O)c2ccc(N)cc2)c(Br)c1`, for which the logP is 1.79.

`S=c1[nH]c2ccccc2[nH]1` displayed a logP of 1.66.

Compound `CCCCCCCCl` returned a logP of 4.15.

In turn, `CC1CN1C1=C(F)C(=O)C(N2CC2C)=C(F)C1=O` (stereo not drawn) gave a lipophilicity (logP) of 1.61.

Turning to `COP(=S)(Oc1cc(Cl)c(Br)cc1Cl)c1ccccc1` (stereo not drawn), the log partition coefficient (logP) came out at 6.31.

On to `Cc1cc(C)c2c(c1)C(c1ccccc1)=NCC(=O)N2`, for which the log partition coefficient (logP) was 2.94.

For `O[C@@H]1CCCC[C@H]1O`, the logP was determined as 0.08.

As to `C=C(C)C`, the logP stood at 2.34.

Regarding `CCC(C)C(NCc1ccccc1)C(=O)O` (stereo not drawn), the lipophilicity (logP) is -0.27.

As for `CCCCC(O)CC` (stereo not drawn), the logP was 2.24.

In turn, `O=c1cc[nH]cn1` returned a log partition coefficient (logP) of -1.38.

As for `CC(=O)N(C)c1ccccc1`, the logP came to 1.12.

With `NS(=O)(=O)c1cc2c(cc1Br)NCNS2(=O)=O`, the lipophilicity (logP) came to 0.08.

Take `CCCN(CCC)N=O`: the logP was 1.36.

`Oc1c(Cl)ccc(Cl)c1Cl` returned a logP of 3.77.

Regarding `CCOc1ccc(S(I)=C(N(C)C)N(C)C)cc1` (stereo not drawn), the logP is -0.06.

`O=C(Oc1ccccc1)n1c(=O)[nH]cc(F)c1=O` gave a logP of 1.73.

In turn, `CN(C)CCOC(=O)c1ccccc1` returned a lipophilicity (logP) of 2.06.

In turn, `c1ccoc1` registered a logP of 1.34.

As to `Oc1c(Cl)cccc1Cl`, the logP is 2.75.

Take `CCOc1ccc(OC(=O)NC)cc1`: the logP was found to be 1.63.

Compound `COc1ccc2c(c1)C13CCN4CC5=CCOC6CC(=O)N2C1C6C5CC43` (stereo not drawn) displayed a logP of 1.85.

On to `c1ccc(N(c2ccccc2)c2ccccc2)cc1`, for which the log partition coefficient (logP) is 5.74.

Consider `Clc1cc(Cl)c(Cl)cc1Cl`, for which the logP turned out to be 4.64.

The compound `CNc1ncnc2c1ncn2C1CC(O)C(CO)O1` (stereo not drawn) yielded a log partition coefficient (logP) of -0.19.

With `CN1C(=O)C(=O)c2ccccc21`, the log partition coefficient (logP) came out at 0.58.

On to `CCC(C)(C)Cl`, for which the logP turned out to be 2.52.

`CCCCCOCc1cccc(NC(=O)OCCN2CCCCC2)c1` yielded a logP of 4.2.

In turn, `C=CC` returned a logP of 1.77.

Regarding `COP(=S)(OC)Oc1ccc([N+](=O)[O-])c(Cl)c1`, the log partition coefficient (logP) came out at 3.45.

For the compound `Cc1ccc(S(=O)(=O)N(C)N=O)cc1`, the log partition coefficient (logP) stood at 0.58.

Compound `CC1=NCCN1CCO` showed a log partition coefficient (logP) of 0.04.

In turn, `O=C(CF)NC(CO)C(O)c1ccc([N+](=O)[O-])cc1` (stereo not drawn) registered a logP of 0.15.

Turning to `CN(C(=O)c1ccccc1)c1ccccc1`, the logP came out at 2.36.

Regarding `O=C(O)c1cc([N+](=O)[O-])ccc1O`, the lipophilicity (logP) was 2.34.

Compound `c1ccc(-n2cnnn2)cc1` had a lipophilicity (logP) of 1.09.

Compound `CCCC(O)CCC` showed a log partition coefficient (logP) of 2.22.

In the case of `FCC1CO1` (stereo not drawn), the log partition coefficient (logP) was -0.16.

In turn, `O=CNc1ccccc1` had a logP of 1.15.

For `CC(=O)Nc1ccc2c(c1)[nH]c1ccccc12`, the logP turned out to be 3.02.

`COc1ccncc1` had a logP of 1.

`CC(=O)Oc1ccccc1I`: the logP came to 2.55.

The compound `COP(=S)(NC(C)C)Oc1ccc(Cl)cc1Cl` (stereo not drawn) displayed a logP of 4.3.

Compound `O=C1C=CC(=O)c2c(O)cccc21` came in with a log partition coefficient (logP) of 1.92.

Take `NCc1cc(O)no1`: the logP was -2.39.

On to `CC(=O)Nc1ccccc1C`, for which the logP worked out at 0.85.

Turning to `CCN(CC)C(=O)SCc1ccc(Cl)cc1`, the log partition coefficient (logP) worked out at 3.4.

`CN(C)C=C[N+](=O)[O-]` returned a logP of -0.8.

As for `CCCCOC(=O)NCC(C)c1ncc([N+](=O)[O-])[nH]1` (stereo not drawn), the logP came to 1.22.

`O=CN1CCCC1` gave a logP of -0.32.

Regarding `CC(=O)O[C@]1(C(C)=O)CC[C@H]2[C@@H]3C[C@H](C)C4=CC(=O)C=C[C@]4(C)[C@@]3(F)[C@@H](O)C[C@@]21C`, the lipophilicity (logP) was found to be 1.5.

For the compound `ClC(Cl)(Cl)Sc1ccccc1`, the logP was 3.78.

`O=C(CN1CCCCC1)Nc1ccc(F)cc1` returned a logP of 2.7.

The compound `NC[C@H](O)c1ccc(O)c(O)c1` had a lipophilicity (logP) of -1.24.

For the compound `NCCCCNC(=O)c1ccccc1`, the logP is 0.58.

`O=[N+]([O-])c1nccn1C1OC(CI)C(O)C1O` (stereo not drawn): the logP came out at 0.32.

Consider `NC(=O)CCc1ccccn1`, for which the logP was -0.27.

With `CC(=O)OCC(=O)[C@@]1(O)CC[C@H]2[C@@H]3CCC4=CC(=O)C=C[C@]4(C)[C@H]3[C@@H](O)C[C@@]21C`, the lipophilicity (logP) was found to be 2.4.

Take `COc1c(O)cc(Cl)c(Cl)c1Cl`: the logP was determined as 3.77.

Compound `Cc1cc2[nH]c(=O)c(=O)[nH]c2cc1C` registered a logP of 1.34.

`CCOC(=O)NCCOc1ccc(Oc2ccccc2)cc1` showed a log partition coefficient (logP) of 4.3.

For the compound `CC(C)NC(=O)NO`, the lipophilicity (logP) is 0.2.

With `CNC(=O)ON=C(C)SC`, the logP amounted to 0.6.

The compound `O=[N+]([O-])c1ccc(C=Cc2ncc[nH]2)o1` came in with a log partition coefficient (logP) of 1.32.

As for `O=C(Nc1ccccc1)N(Cc1ccc(Cl)cc1)C1CCCC1`, the logP turned out to be 4.82.

The compound `CN1C(=O)CN=C(c2ccccc2F)c2cc(F)ccc21` came in with a logP of 2.41.

The compound `CCC(CC)C(=O)NC(CO)C(O)c1ccc([N+](=O)[O-])cc1` (stereo not drawn) came in with a logP of 1.71.

In turn, `CC(=O)N(C)N=Nc1ccc(C)cc1` came in with a logP of 3.23.

`CC(C)(C)C(=O)OCC1CCC(n2cnc3c(=O)[nH]cnc32)O1` (stereo not drawn) registered a logP of 0.6.

The compound `NCCCc1ccccn1` registered a logP of 0.49.

Consider `COCCOc1ccccc1`, for which the lipophilicity (logP) came to 1.73.

`ClC(Cl)=C(Cl)C(Cl)=C(Cl)Cl` showed a logP of 4.78.

For the compound `NNC(=O)c1cccc(I)c1`, the logP came out at 1.53.

Regarding `COCCOC(=O)c1ccccc1`, the log partition coefficient (logP) is 1.78.

`CCOc1c(NS(=O)(=O)c2ccc(N)cc2)ncnc1OC` displayed a logP of 1.03.

`NC(Cc1ccc([N+](=O)[O-])cc1)C(=O)O` (stereo not drawn) displayed a lipophilicity (logP) of -1.25.

`C#CCCCC` had a logP of 2.73.

`CCCCCCCC(=O)O` came in with a logP of 3.05.

As to `C=CCN1CC[C@]23c4c5ccc(O)c4O[C@H]2[C@@H](O)C=C[C@H]3[C@H]1C5`, the logP was found to be 1.86.

Compound `CCCCC(C)(C)c1ccc(C2CCCC(O)C2)c(O)c1` (stereo not drawn) gave a log partition coefficient (logP) of 5.43.

`Brc1cccc(Br)c1` showed a lipophilicity (logP) of 3.75.

On to `CC(=O)COc1ccccc1`, for which the logP worked out at 1.04.

For the compound `Cn1cccc1C=NNC(=S)Nc1ccccc1`, the logP turned out to be 3.64.

In the case of `COc1cccnc1`, the logP is 0.99.

In the case of `Nc1nnc(Cc2ccccc2)o1`, the logP was 0.95.

For `CC(C)CCO[N+](=O)[O-]`, the lipophilicity (logP) worked out at 2.84.

`CCC1(c2ccccc2)C(=O)NCNC1=O` showed a logP of 0.91.

As to `C1=CCCCC1`, the log partition coefficient (logP) was 2.86.

In turn, `C#C` yielded a lipophilicity (logP) of 0.37.

`CC(=S)N(c1ccccc1)c1ccccc1` gave a log partition coefficient (logP) of 2.83.

Turning to `CC1CN(N=O)CC(C)O1` (stereo not drawn), the lipophilicity (logP) was 0.32.

For the compound `COc1cccc(OC(=O)N(C)C)c1`, the log partition coefficient (logP) stood at 1.6.

`Brc1cc(Br)cc(Br)c1` registered a lipophilicity (logP) of 4.51.

`O=C1NC(=O)[C@@]2(CCOc3ccc(F)cc32)N1` had a logP of 0.78.

Turning to `O=[N+]([O-])c1ccc2cccnc2c1`, the lipophilicity (logP) was 1.82.

The compound `CCCCOCc1ccccc1NC(=O)OCCN1CCCCC1` came in with a logP of 3.94.

Take `CC(C)=CC1C(C(=O)OCN2C(=O)C3=C(CCCC3)C2=O)C1(C)C` (stereo not drawn): the logP was determined as 4.73.

In the case of `Fc1cccc2cccnc12`, the lipophilicity (logP) worked out at 2.19.

With `O=[N+]([O-])c1cc(Cl)c(Cl)cc1Cl`, the log partition coefficient (logP) came out at 3.48.

Regarding `O=C(NCCN1CCC(O)(c2ccc(Cl)cc2)CC1)c1ccc(F)cc1`, the lipophilicity (logP) was 2.85.

In turn, `COc1ccc(NC(=O)N(C)C)cc1Cl` returned a logP of 1.64.

On to `O=C1OC(c2ccccc2)c2ccccc21` (stereo not drawn), for which the logP came out at 2.64.

In the case of `Cc1cccc2cccnc12`, the logP is 2.6.

`CCC1C(=O)NC(=O)NC1=O` yielded a logP of -0.35.

In turn, `O=NN(CCCl)C(=O)NC1CCCC1` yielded a logP of 2.2.

`O=S(=O)(Oc1ccccc1)c1ccccc1` gave a lipophilicity (logP) of 3.06.

As to `Cc1nc(-c2ccccc2)c2ccccc2n1`, the log partition coefficient (logP) was determined as 3.1.

Compound `Nc1nc(N)nc(-c2ccc(F)cc2)n1` showed a logP of 1.61.

For `O=C1NC(=S)NC(=O)C1C(=O)Nc1ccccc1`, the logP amounted to 0.14.

As to `CCCNCc1cccnc1`, the logP came out at 0.9.

For the compound `CCn1cc(C)c(=O)[nH]c1=O`, the logP is -0.15.

For `Cc1ncc(CNC(=O)N(CCCl)N=O)c(N)n1`, the logP was found to be 0.39.

Regarding `Cc1cc(Cl)cc(Cl)c1NC1=NCCN1`, the logP amounted to 2.38.

On to `CCOc1ccc(NC(=O)OC2CCCC2)cc1OCC`, for which the log partition coefficient (logP) is 3.33.

For the compound `CCNCCc1cccnc1`, the lipophilicity (logP) worked out at 0.54.

`O=C(O)C=CC(=O)c1ccccc1`: the log partition coefficient (logP) worked out at 1.53.

Take `CCCCCc1cn[nH]c1`: the logP stood at 2.96.

The compound `Cn1c(=O)n(C)c2ccccc21` showed a lipophilicity (logP) of 1.46.

`Nc1ccc(S(=O)(=O)Nc2ccccc2)cc1` yielded a logP of 1.55.

Compound `CCC(C)[N+](=O)[O-]` (stereo not drawn) showed a logP of 1.2.

For `CN(C)C(=O)C=Cc1ccccc1`, the logP came out at 1.73.

Turning to `CN(C(=S)c1ccccc1)c1ccccc1`, the logP came out at 3.12.

In the case of `COc1cc(CCN)cc(OC)c1Br`, the logP is 2.03.

For `Nc1cc([N+](=O)[O-])ccc1C(=O)O`, the log partition coefficient (logP) worked out at 1.91.

`NC(=O)c1ccc(N)cc1` had a logP of -0.41.

The compound `CSc1ccc2ccccc2n1` had a lipophilicity (logP) of 3.04.

`Nc1ccncc1` showed a logP of 0.32.

As for `NC(=O)CCCc1ccncc1`, the logP was -0.09.

As to `N#CN/C(N)=N/c1ccccc1`, the log partition coefficient (logP) amounted to 1.05.

Consider `Clc1cccnc1`, for which the log partition coefficient (logP) was 1.33.

Take `Cn1c(N)nc2cc(Cl)c(Cl)cc21`: the logP turned out to be 2.98.

With `CC(C)(C)C(=O)C(C)(C)C`, the logP was 3.

Regarding `CCCCC(C#N)(Cn1ccnc1)c1ccccc1` (stereo not drawn), the logP came out at 2.94.
